From patent US20260337177A1, “TEAD CORE INHIBITORS FOR CANCER THERAPEUTICS” (University of Florida Research Foundation, Incorporated, priority 2023, published 2026)
“And” between values parts separate entries of the source, which are not always exact repeats. Equal entries are not always repeated.

What was measured:
TEADs = test: TEAD-specific 8×GTIIC-luciferase reporter assay; type: cell-based; settings: for inhibition at 10 µM: 8×GTIIC-luciferase, read-out: Luciferase reporter assay inhibitory rate; for IC50: dose response, read-out: TEADs transcription inhibition IC50, luciferase reporter assay
Method: A series of compounds featuring a chloromethyl ketone moiety were synthesized (Schemes 1-4). The inhibitory rate of this series of compounds was tested using 8×GTIIC-luciferase reporter assay at 10 μM.
Next, the inhibition of TEAD transcription activity of compounds was tested varying the dosage using the 8×GTIIC-luciferase reporter assay. […] The aim was to determine whether its inhibition of TEAD transcription can lead to downregulation of the YAP-TEAD target genes. CTGF is one of the best characterized (bona fide) target gene of YAP and TAZ.
To further investigate the mechanism of the inhibitory effect of compounds in Huh7 cells, TEADs specific luciferase reporter assays were performed with compounds 22 and 12 at several concentrations. […] TEAD downstream gene expression patterns were evaluated in liver cancer cells Huh7, which has been evidenced with relative high expression of YAP and TEAD2.
HEK 293T cells were plated at 2×10^4 cells/well in a 96 well microplate and were transfected with 50 ng of 8×GTIIC-luciferase plasmid (Addgene #34615) and 0.5 ng of pRL-CMV (Promega #E226A) by using lipofectamine 3000 (Life Technologies #L3000). The 8×GTIIc-luciferase reporter is a Yap/Taz-activity reporter containing eight TEAD consensus binding sequences. After 6 h, transfected cells were treated with various concentrations of compounds or DMSO control. Luciferase signals were measured using the Dual Luciferase Reporter Assay System (Promega, E1960) according to the manufacturer's instructions. Experiments were performed in triplicate and repeated at least three times.

CTGF [1] = test: CTGF protein expression by western blotting in Huh7 cells; type: cell-based, human; settings: dose-dependent
Method: Treated Huh7 cells were harvested and lysed in cold RIPA lysis buffer containing […] and phosphatase inhibitors. The protein concentrations were determined using the BCA Protein Assay kit. The prepared protein samples were loaded on and separated by 10% SDS-PAGE gel and then were transferred to PVDF membrane. Blots were blocked for 1 h at RT in blocking buffer and incubated with corresponding primary antibodies: anti-CTGF (ab227180), and anti-GAPDH (ab9485), at 4 ° C overnight. Then the blots were incubated with HRP-conjugated anti-rabbit secondary antibody in blocking buffer for 1.5 h at RT. The membranes were imaged with ChemiDoc MP imaging system.

CTGF [2] = test: CTGF mRNA expression by RT-qPCR in Huh7 cells; type: cell-based, human; settings: dose-dependent
Method: Huh7 and HepG2 liver cancer cells were seeded at 1×10^6 cells/dish and allowed to adhere overnight. The cells were then treated with indicated doses of compounds in medium for 24 hours. The cells were then harvested, and total RNA was purified using the Aurum total RNA mini kit (Bio-Rad #732-6820) according to the manufacturer's instructions. Complementary DNA was synthesized from 500 ng total RNA template by iScript reverse transcription kit (Bio-Rad #1725037) according to the manufacturer's instructions. Real-time PCR reactions utilized 60 ng cDNA and PrimePCR primers from Bio-Rad (Unique Assay ID: human GAPDH-qHsaCEP0041396, human CTGF-qHsaCEP0024255, human CYR61-qHsaCEP0024230) designed for SYBR Green gene expression analysis (Bio-Rad #1726270). All reactions were carried out in triplicate using Quant Studio 3 PCR system (Applied Biosystems). Relative gene expression level was quantified via ΔΔCt method by using GAPDH as an endogenous reference.

Huh7 cells = test: Huh7 cell proliferation assay (CCK8); type: cell-based, human; settings: Homo sapiens, Huh-7, 72 h; 3 days; CCK8; mean ± SD of three independent experiments; read-out: Cell proliferation assay IC50, Huh7
Method: CCK8 assay kit was used to determine antiproliferative activity of synthesized compounds against Huh7 cell line. First, Huh7 cells were seeded into 96-well plates at a density of 3000 cells/well and incubated overnight. Cells were then co-incubated with compounds at 8 concentrations for 72 h. Then, the cell proliferation was determined by the CCK8 kit according to the standard protocol. Experiments were performed in triplicate.

AML12 cells = test: AML12 normal liver cell growth inhibition (CCK8); type: cell-based; settings: for Inhibitory rate, AML12 (inhibitory percentage of AML12 cell growth): 10 μM, 3 days
[3] = AML12 normal liver cell growth inhibition (CCK8); type: cell-based; settings: mouse, aml12 cells
TEAD [4] = test: Fluorescence polarization assay; type: binding; settings: FIG. 1D
Text: FIGS. 1A-1D depict discovery of C-3 as moderate TEAD transcription inhibitor. (FIG. 1A) The flowchart of the docking-based virtual screening campaign. (FIG. 1B) Predicted binding mode of C-3 in TEAD2 lipid binding pocket.

YAP-TEAD = settings: all four TEAD family members; cited from earlier work
YAP [5] = settings: literature; cited from earlier work
YAP [6] = settings: literature; cited from earlier work; remark: listed apart in the source
TEAD [7] = settings: literature; cited from earlier work
YAP/TEAD = settings: literature; cited from earlier work

IC50 (TEADs)	IC50 (Huh7 cells) [nM]	Compound	inhibition at 10 µM (TEADs) [%]	CTGF protein expression, Huh7 (CTGF [1])	CTGF mRNA expression, Huh7 (CTGF [2])	Inhibitory rate, AML12 (inhibitory percentage of AML12 cell growth) (AML12 cells) [%]	further results
629 nM	1200 ± 300	O=C(CCl)NCc1c[nH]c2cc(Cl)c(OCc3ccccc3)cc12 [Compound 12, N-((5-(benzyloxy)-6-chloro-1H-indol-3-yl)methyl)-2-chloroacetamide]	97.8	suppression of CTGF protein production	suppressed	34.2	–
5000 nM	32500	Clc1cc2[nH]ccc2cc1OCc1ccccc1 [Compound C-3]	68.3	–	–	–	Fluorescence polarization, inhibition (TEAD [4]): inhibition; inhibition at 72 h, 10 µM ([3]; 10 μM, 3 days, read-out: Inhibitory rate, AML12 (inhibitory percentage of AML12 cell growth)): 20%
–	–	COc1ccc(-c2cc(-c3ccccc3)nc3c2CC(=O)Nc2ccccc2-3)cc1OC [NSC682769]	–	–	–	–	Association of YAP with TEAD family members (YAP-TEAD): inhibit its association with all four TEAD family members; YAP binding (YAP [5]): directly bind to YAP; YAP expression (YAP [6]): attenuates YAP expression
–	–	Cc1ccc2c(c1)c1c3n2CCNC3CCC1 (stereo not shown) [CPD3.1]	–	–	–	–	TEAD reporter activity (TEAD [7]): inhibits TEAD reporter activity; YAP/TEAD interaction, co-IP (YAP/TEAD): disrupt YAP/TEAD interaction

Compound	IC50 (TEADs)	IC50 (Huh7 cells) [nM]	inhibition at 10 µM (TEADs) [%]	CTGF protein expression, Huh7 (CTGF [1])	CTGF mRNA expression, Huh7 (CTGF [2])	Inhibitory rate, AML12 (inhibitory percentage of AML12 cell growth) (AML12 cells) [%]	further results
O=C(CCl)c1c[nH]c2cc(Cl)c(OCc3ccc4ccccc4c3)cc12 [Compound 2, 2-chloro-1-(6-chloro-5-(naphthalen-2-ylmethoxy)-1H-indol-3-yl)ethan-1-one]	890 nM and 870 nM	2300 ± 600	95.6	dose-dependent decrease	significantly decreased	32.1	TEAD transcription inhibition, luciferase reporter (TEADs; varying dosage, FIGS. 3A-3B): potent inhibition activity; Toxicity towards normal liver cell line AML12 (AML12 cells): least toxic of the covalent compounds; inhibition at 10 µM ([3]; "at 10 M", read-out: Inhibitory rate of AML cells): 32%
